# Test results reported in PMC7161708 (Acta Pharmaceutica Sinica. B, 2019).
# Columns and labels:
# in vitro = settings: PAMPA
# [1] = system: phosphorylation of p70S6K; test: Inhibition of p70S6K phosphorylation, α-screen assay in SH-SY5Y cell; assay type: cell-based; settings: mean ± SD (n ≥ 3)
# [2] = from PAMPA–BBB Pe
"Papp at 10 h, 100 μg/mL (in vitro) [×10⁻⁶ cm/s]",Structure (SMILES),Inhibition ratio of p70S6K phosphorylation at 20 μmol/L (%) [1] [%],Prediction of BBB penetration [2]
3.42 ± 0.07,"O=C(Nc1ncc(N2CCOCC2)s1)c1ccc2ccccc2c1 [Compound 31, N-(5-Morpholinothiazol-2-yl)-2-naphthamide]",80.96±1.60,CNS+ (Compounds with permeabilities Pe > 3.08 × 10^−6 cm/s could cross the BBB by passive diffusion (CNS+))
,"CCCC(=O)Nc1ncc(N2CCOCC2)s1 [Compound 47, N-(5-Morpholinothiazol-2-yl)butyramide]",61.71±2.51,
,"O=C(Nc1ncc(N2CCOCC2)s1)C1CCC1 [Compound 40, N-(5-Morpholinothiazol-2-yl)cyclobutanecarboxamide]",66.21±3.74,
,"CCCCCC(=O)Nc1ncc(N2CCOCC2)s1 [Compound 48, N-(5-Morpholinothiazol-2-yl)hexanamide]",61.32±5.39,
,"CC(=O)Oc1ccccc1C(=O)Nc1ncc(S(C)(=O)=O)s1 [Compound 9, 2-Acetyloxy-N-(5-(methylsulfonyl)thiazol-2-yl)benzamide]",10.67±10.51,
,"Cc1ccccc1C(=O)Nc1ncc(N2CCOCC2)s1 [Compound 28, 2-Methyl-N-(5-morpholinothiazol-2-yl)benzamide]",55.38±1.66,
6.82 ± 0.5,"O=C(Nc1ncc(N2CCOCC2)s1)c1ccoc1 [Compound 34, N-(5-Morpholinothiazol-2-yl)furan-3-carboxamide]",80.23±0.88,CNS+ (Compounds with permeabilities Pe > 3.08 × 10^−6 cm/s could cross the BBB by passive diffusion (CNS+))
,"CC(=O)Oc1ccccc1C(=O)Nc1ncc(C#N)s1 [Compound 5, 2-Acetyloxy-N-(5-cyanothiazol-2-yl)benzamide]",70.85±3.56,
,"O=C(Nc1ncc(N2CCOCC2)s1)c1ccc(C(F)(F)F)cc1O [Compound 18, 2-Hydroxy-N-(5-morpholinothiazol-2-yl)-4-(trifluoromethyl)benzamide]",8.76±5.93,
0.09 ± 0.01,"O=C(Nc1ncc(N2CCOCC2)s1)c1ccc(O)cc1 [Compound 21, 4-Hydroxy-N-(5-morpholinothiazol-2-yl)benzamide]",79.20±1.87,CNS− (Compounds with Pe < 1.13 × 10^−6 cm/s show low BBB permeation (CNS−))
,"CC(C)CC(=O)Nc1ncc(N2CCOCC2)s1 [Compound 49, 3-Methyl-N-(5-morpholinothiazol-2-yl)butanamide]",40.38±3.37,
,"COC[C@H]1OC(=O)c2coc3c2[C@@]1(C)C1=C(C3=O)[C@@H]2CCC(=O)[C@@]2(C)C[C@H]1OC(C)=O [WORT, wortmannin, reference compound]",90.68±1.46,
,"O=C1CCCCC1C(=O)Nc1ncc(N2CCOCC2)s1 (stereo not drawn) [Compound 53, N-(5-Morpholinothiazol-2-yl)-2-oxocyclohexanecarboxamide]",44.94±4.00,
,"O=C(Nc1ncc(N2CCOCC2)s1)c1ccc(Cl)cc1O [Compound 16, 4-Chloro-2-hydroxy-N-(5-morpholinothiazol-2-yl)benzamide]",21.02±4.56,
,"CC(=O)CC(=O)Nc1ncc(N2CCOCC2)s1 [Compound 54, N-(5-Morpholinothiazol-2-yl)-3-oxobutanamide]",66.46±3.73,
,"CC(=O)Oc1ccccc1C(=O)Nc1ncc(N2CCNCC2)s1 [Compound 14, 2-Acetyloxy-N-(5-(piperazin-1-yl)thiazol-2-yl)benzamide]",28.21±6.44,
,"O=C(Nc1ncc(N2CCOCC2)s1)c1ccccc1O [Compound 19, 2-Hydroxy-N-(5-morpholinothiazol-2-yl)benzamide]",53.79±3.85,
,"CCC(=O)Nc1ncc(N2CCOCC2)s1 [Compound 46, N-(5-Morpholinothiazol-2-yl)propionamide]",44.98±8.58,
,"COC(=O)c1cnc(NC(=O)c2ccccc2OC(C)=O)s1 [Compound 6, Methyl 2-(2-acetoxybenzamido)thiazole-5-carboxylate]",32.72±7.87,
9.88 ± 0.75,"Cc1ccsc1C(=O)Nc1ncc(N2CCOCC2)s1 [Compound 38, 3-Methyl-N-(5-morpholinothiazol-2-yl)thiophene-2-carboxamide]",80.32±0.71,CNS+ (Compounds with permeabilities Pe > 3.08 × 10^−6 cm/s could cross the BBB by passive diffusion (CNS+))
,"O=C(Nc1ncc(N2CCOCC2)s1)c1ccccc1F [Compound 26, 2-Fluoro-N-(5-morpholinothiazol-2-yl)benzamide]",65.98±1.74,
,"O=C(Nc1ncc([N+](=O)[O-])s1)c1ccccc1O [Compound 2, tizoxanide, reference compound]",43.09±2.98,

"Papp at 10 h, 100 μg/mL (in vitro) [×10⁻⁶ cm/s]",Structure (SMILES),Inhibition ratio of p70S6K phosphorylation at 20 μmol/L (%) [1] [%],Prediction of BBB penetration [2]
,"O=C(Nc1ncc(N2CCOCC2)s1)C1CCCC1 [Compound 41, N-(5-Morpholinothiazol-2-yl)cyclopentanecarboxamide]",63.37±4.65,
,"O=C(Nc1ncc(N2CCOCC2)s1)c1ccc(F)cc1O [Compound 15, 4-Fluoro-2-hydroxy-N-(5-morpholinothiazol-2-yl)benzamide]",42.25±0.19,
,"O=C(CCC(F)(F)F)Nc1ncc(N2CCOCC2)s1 [Compound 50, 4,4,4-Trifluoro-N-(5-morpholinothiazol-2-yl)butanamide]",61.35±5.44,
9.24 ± 0.47,"O=C(Nc1ncc(N2CCOCC2)s1)c1ccsc1 [Compound 35, N-(5-Morpholinothiazol-2-yl)thiophene-3-carboxamide]",79.84±1.17,CNS+ (Compounds with permeabilities Pe > 3.08 × 10^−6 cm/s could cross the BBB by passive diffusion (CNS+))
10.5 ± 1.13,"O=C(CCc1ccccc1)Nc1ncc(N2CCOCC2)s1 [Compound 52, N-(5-Morpholinothiazol-2-yl)-3-phenylpropanamide]",81.60±1.86,CNS+ (Compounds with permeabilities Pe > 3.08 × 10^−6 cm/s could cross the BBB by passive diffusion (CNS+))
,"O=C(Nc1ncc(N2CCOCC2)s1)C1CCCCC1 [Compound 42, N-(5-Morpholinothiazol-2-yl)cyclohexanecarboxamide]",61.15±1.44,
12.6 ± 1.22,"O=C(Nc1ncc(N2CCOCC2)s1)c1ccccc1 [Compound 24, N-(5-Morpholinothiazol-2-yl)benzamide]",77.51±1.48,CNS+ (Compounds with permeabilities Pe > 3.08 × 10^−6 cm/s could cross the BBB by passive diffusion (CNS+))
,"CSc1cnc(NC(=O)c2ccccc2OC(C)=O)s1 [Compound 8, 2-Acetyloxy-N-(5-(methylthio)thiazol-2-yl)benzamide]",44.74±9.98,
,"CC(=O)Oc1ccccc1C(=O)Nc1ncc(C(=O)OCc2ccccc2)s1 [Compound 7, Benzyl 2-(2-acetoxybenzamido)thiazole-5-carboxylate]",18.88±5.27,
,"CC(=O)Oc1ccccc1C(=O)Nc1ncc(N2CCCCC2)s1 [Compound 11, 2-Acetyloxy-N-(5-(piperidin-1-yl)thiazol-2-yl)benzamide]",56.27±4.61,
,"CC(=O)Nc1ncc(N2CCOCC2)s1 [Compound 45, N-(5-Morpholinothiazol-2-yl)acetamide]",43.86±4.45,
6.16 ± 0.5,"O=C(Nc1ncc(N2CCOCC2)s1)c1ccco1 [Compound 32, N-(5-Morpholinothiazol-2-yl)furan-2-carboxamide]",81.09±4.27,CNS+ (Compounds with permeabilities Pe > 3.08 × 10^−6 cm/s could cross the BBB by passive diffusion (CNS+))
,"O=C(Cc1ccccc1)Nc1ncc(N2CCOCC2)s1 [Compound 51, N-(5-Morpholinothiazol-2-yl)-2-phenylacetamide]",47.82±3.90,
,"CC(=O)Oc1ccccc1C(=O)Nc1nccs1 [Compound 4, 2-Acetyloxy-N-(thiazol-2-yl)benzamide]",9.98±5.16,
,"O=C(Nc1ncc(N2CCOCC2)s1)c1ccccc1[N+](=O)[O-] [Compound 27, N-(5-Morpholinothiazol-2-yl)-2-nitrobenzamide]",53.24±5.72,
,"CC(=O)Oc1ccccc1C(=O)Nc1ncc(C(=O)O)s1 [Compound 10, 2-(2-Acetoxybenzamido)thiazole-5-carboxylic acid]",−4.51±19.40,
,"O=C(Nc1ncc(N2CCOCC2)s1)C1CC1 [Compound 39, N-(5-Morpholinothiazol-2-yl)cyclopropanecarboxamide]",63.76±1.31,
,"O=C(Nc1ncc(N2CCOCC2)s1)C1CCCCCC1 [Compound 43, N-(5-Morpholinothiazol-2-yl)cycloheptanecarboxamide]",51.10±1.59,
,"COc1ccccc1C(=O)Nc1ncc(N2CCOCC2)s1 [Compound 29, 2-Methoxy-N-(5-morpholinothiazol-2-yl)benzamide]",26.90±6.23,
,"O=C(Nc1ncc(N2CCOCC2)s1)c1ccc(Br)cc1O [Compound 17, 4-Bromo-2-hydroxy-N-(5-morpholinothiazol-2-yl)benzamide]",15.41±5.32,
,"O=C(Nc1ncc(N2CCOCC2)s1)c1ccccc1C(F)(F)F [Compound 25, N-(5-Morpholinothiazol-2-yl)-2-(trifluoromethyl)benzamide]",22.05±1.85,
,"CC(=O)Oc1ccccc1C(=O)Nc1ncc(-n2cccc2)s1 [Compound 13, 2-Acetyloxy-N-(5-(1H-pyrrol-1-yl)thiazol-2-yl)benzamide]",69.85±0.53,
